{"source": "ChEMBL document CHEMBL1152396", "about": "“Cardenolides from Pergularia tomentosa display cytotoxic activity resulting from their potent inhibition of Na+/K+-ATPase” (J Nat Prod, 2009)", "key": {"A549 [1]": {"test_system": "A549", "experiment": "Induction of human A549 cell death assessed as morphological changes at 800 nM after 3 days by video microscopy", "format": "functional, cell-based"}, "A549 [2]": {"test_system": "A549", "experiment": "Antiproliferative activity against human A549 cells after 72 hrs by MTT assay", "format": "functional, cell-based", "settings": "A549, 72 h"}, "MCF7": {"test_system": "MCF7", "experiment": "Antiproliferative activity against human MCF7 cells after 72 hrs by MTT assay", "format": "functional, cell-based", "settings": "MCF7, 72 h"}, "U-373MG ATCC [3]": {"test_system": "U-373MG ATCC", "experiment": "Induction of human U373 cell death assessed as morphological changes at 3.4 uM after 3 days by video microscopy", "format": "functional, cell-based"}, "PC-3": {"test_system": "PC-3", "experiment": "Antiproliferative activity against human PC3 cells after 72 hrs by MTT assay", "format": "functional, cell-based", "settings": "PC-3, 72 h"}, "U-373MG ATCC [4]": {"test_system": "U-373MG ATCC", "experiment": "Induction of human U373 cell growth delay assessed as morphological changes at 3.4 uM after 3 days by video microscopy", "format": "functional, cell-based"}, "[5]": {"experiment": "Inhibition of pig cerebral cortex Na+/K+-ATPase by colorimetric microplate-based assay", "format": "tissue-based, Sus scrofa"}, "BXPC-3": {"test_system": "BXPC-3", "experiment": "Antiproliferative activity against human BxPC3 cells after 72 hrs by MTT assay", "format": "functional, cell-based", "settings": "BXPC-3, 72 h"}, "[6]": {"experiment": "Antiproliferative activity against human U373 cells after 72 hrs by MTT assay", "format": "functional, cell-based, U-373MG ATCC", "settings": "U373 MG"}, "LoVo": {"test_system": "LoVo", "experiment": "Antiproliferative activity against human LoVo cells after 72 hrs by MTT assay", "format": "functional, cell-based"}, "A549 [7]": {"test_system": "A549", "experiment": "Induction of human A549 cell growth delay assessed as morphological changes at 800 nM after 3 days by video microscopy", "format": "functional, cell-based"}, "Sus scrofa": {"species_on_record": "Sus scrofa", "experiment": "Inhibition of pig cerebral cortex Na+/K+ ATPase at 1 mM by colorimetric microplate-based assay", "format": "tissue-based"}, "U-373MG ATCC [8]": {"test_system": "U-373MG ATCC", "experiment": "Induction of human U373 cell growth delay assessed as morphological changes at 400 nM after 3 days by video microscopy", "format": "functional, cell-based"}, "A549 [9]": {"test_system": "A549", "experiment": "Induction of human A549 cell death assessed as morphological changes at 80 nM after 3 days by video microscopy", "format": "functional, cell-based"}, "U-373MG ATCC [10]": {"test_system": "U-373MG ATCC", "experiment": "Induction of human U373 cell death assessed as morphological changes at 400 nM after 3 days by video microscopy", "format": "functional, cell-based"}, "A549 [11]": {"test_system": "A549", "experiment": "Induction of human A549 cell growth delay assessed as morphological changes at 80 nM after 3 days by video microscopy", "format": "functional, cell-based"}, "A549 [12]": {"test_system": "A549", "experiment": "Induction of human A549 cell growth delay assessed as morphological changes at 200 nM after 3 days by video microscopy", "format": "functional, cell-based"}, "A549 [13]": {"test_system": "A549", "experiment": "Induction of human A549 cell death assessed as morphological changes at 200 nM after 3 days by video microscopy", "format": "functional, cell-based"}}, "note": "Activity calls are given as the source filed them. The calls are words filed in the database; no cut-off is given here.", "data": [{"smiles": "CC(=O)O[C@@H]1C[C@]2(O)[C@@H]3CC[C@H]4C[C@H]5O[C@@H]6O[C@H](CO)C[C@@H](O)[C@]6(O)O[C@@H]5C[C@]4(C=O)[C@H]3CC[C@]2(C)[C@H]1C1=CC(=O)OC1", "values": [{"measurement": "Activity", "setting": "A549 [1]", "value": "Active"}, {"measurement": "IC50", "setting": "A549 [2]", "value": 800, "unit": "nM"}, {"measurement": "IC50", "setting": "MCF7", "value": 4100, "unit": "nM"}, {"measurement": "Activity", "setting": "U-373MG ATCC [3]", "value": "Active"}, {"measurement": "IC50", "setting": "PC-3", "value": 1200, "unit": "nM"}, {"measurement": "Activity", "setting": "U-373MG ATCC [4]", "value": "Active"}, {"measurement": "IC50", "setting": "[5]", "value": 1200, "unit": "nM"}, {"measurement": "IC50", "setting": "BXPC-3", "value": 4400, "unit": "nM"}, {"measurement": "IC50", "setting": "[6]", "value": 3400, "unit": "nM"}, {"measurement": "IC50", "setting": "LoVo", "value": 6400, "unit": "nM"}, {"measurement": "Activity", "setting": "A549 [7]", "value": "Active"}]}, {"smiles": "C[C@@H]1O[C@@H](O[C@H]2C[C@@H](O)[C@]3(CO)[C@H]4[C@H](O)C[C@]5(C)[C@@H](C6=CC(=O)OC6)CC[C@]5(O)[C@@H]4CC[C@]3(O)C2)[C@H](O)[C@H](O)[C@H]1O", "values": [{"measurement": "inhibition", "setting": "Sus scrofa", "value": 100, "unit": "%"}]}, {"smiles": "C[C@@H]1C[C@@H](O)[C@]2(O)O[C@@H]3C[C@@]4(C=O)[C@@H](CC[C@@H]5[C@@H]4CC[C@]4(C)[C@@H](C6=CC(=O)OC6)[C@H](O)C[C@]54O)C[C@H]3O[C@@H]2O1", "values": [{"measurement": "IC50", "setting": "A549 [2]", "value": 400, "unit": "nM"}, {"measurement": "IC50", "setting": "MCF7", "value": 3800, "unit": "nM"}, {"measurement": "IC50", "setting": "PC-3", "value": 1000, "unit": "nM"}, {"measurement": "IC50", "setting": "[5]", "value": 1700, "unit": "nM"}, {"measurement": "IC50", "setting": "BXPC-3", "value": 2300, "unit": "nM"}, {"measurement": "IC50", "setting": "[6]", "value": 2600, "unit": "nM"}, {"measurement": "IC50", "setting": "LoVo", "value": 4400, "unit": "nM"}]}, {"smiles": "C[C@@H]1CC2(NC(=O)CS2)[C@]2(O)O[C@@H]3C[C@@]4(CO)[C@@H](CC[C@@H]5[C@@H]4CC[C@]4(C)[C@@H](C6=CC(=O)OC6)CC[C@]54O)C[C@H]3O[C@@H]2O1", "note": "(stereo not given in full)", "values": [{"measurement": "IC50", "setting": "A549 [2]", "value": 8, "unit": "nM"}]}, {"smiles": "C[C@@H]1C[C@@H](O)[C@]2(O)O[C@@H]3C[C@@]4(C=O)[C@@H](CC[C@@H]5[C@@H]4CC[C@]4(C)[C@@H](C6=CC(=O)OC6)CC[C@]54O)C[C@H]3O[C@@H]2O1", "note": "[CALACTIN]", "values": [{"measurement": "IC50", "setting": "A549 [2]", "value": 20, "unit": "nM"}, {"measurement": "IC50", "setting": "MCF7", "value": 40, "unit": "nM"}, {"measurement": "IC50", "setting": "PC-3", "value": 20, "unit": "nM"}, {"measurement": "IC50", "setting": "[5]", "value": 400, "unit": "nM"}, {"measurement": "IC50", "setting": "BXPC-3", "value": 80, "unit": "nM"}, {"measurement": "IC50", "setting": "[6]", "value": 200, "unit": "nM"}, {"measurement": "IC50", "setting": "LoVo", "value": 50, "unit": "nM"}]}, {"smiles": "C[C@]12CC[C@H]3[C@@H](CC[C@H]4C[C@H]5O[C@@H]6O[C@H](CO)C[C@@H](O)[C@]6(O)O[C@@H]5C[C@@]43CO)[C@@]1(O)CC[C@@H]2C1=CC(=O)OC1", "values": [{"measurement": "IC50", "setting": "A549 [2]", "value": 40, "unit": "nM"}, {"measurement": "IC50", "setting": "MCF7", "value": 400, "unit": "nM"}, {"measurement": "IC50", "setting": "PC-3", "value": 40, "unit": "nM"}, {"measurement": "IC50", "setting": "[5]", "value": 400, "unit": "nM"}, {"measurement": "IC50", "setting": "BXPC-3", "value": 300, "unit": "nM"}, {"measurement": "IC50", "setting": "[6]", "value": 100, "unit": "nM"}, {"measurement": "IC50", "setting": "LoVo", "value": 200, "unit": "nM"}]}, {"smiles": "C[C@]12[C@H](O)C[C@H]3[C@@H](CC[C@H]4C[C@H]5O[C@@H]6O[C@H](CO)C[C@@H](O)[C@]6(O)O[C@@H]5C[C@@]43CO)[C@@]1(O)CC[C@@H]2C1=CC(=O)OC1", "note": "[GHALAKINOSIDE]", "values": [{"measurement": "Activity", "setting": "U-373MG ATCC [8]", "value": "Active"}, {"measurement": "IC50", "setting": "A549 [2]", "value": 80, "unit": "nM"}, {"measurement": "IC50", "setting": "MCF7", "value": 300, "unit": "nM"}, {"measurement": "IC50", "setting": "PC-3", "value": 80, "unit": "nM"}, {"measurement": "IC50", "setting": "[5]", "value": 300, "unit": "nM"}, {"measurement": "IC50", "setting": "BXPC-3", "value": 300, "unit": "nM"}, {"measurement": "Activity", "setting": "A549 [9]", "value": "Active"}, {"measurement": "Activity", "setting": "U-373MG ATCC [10]", "value": "Active"}, {"measurement": "IC50", "setting": "[6]", "value": 400, "unit": "nM"}, {"measurement": "Activity", "setting": "A549 [11]", "value": "Active"}, {"measurement": "IC50", "setting": "LoVo", "value": 300, "unit": "nM"}]}, {"smiles": "C[C@@H]1C[C@@H](O)[C@]2(O)O[C@@H]3C[C@@]4(CO)[C@@H](CC[C@@H]5[C@@H]4C[C@@H](O)[C@]4(C)[C@@H](C6=CC(=O)OC6)CC[C@]54O)C[C@H]3O[C@@H]2O1", "values": [{"measurement": "IC50", "setting": "A549 [2]", "value": 50, "unit": "nM"}, {"measurement": "IC50", "setting": "MCF7", "value": 300, "unit": "nM"}, {"measurement": "IC50", "setting": "PC-3", "value": 50, "unit": "nM"}, {"measurement": "IC50", "setting": "[5]", "value": 700, "unit": "nM"}, {"measurement": "IC50", "setting": "BXPC-3", "value": 300, "unit": "nM"}, {"measurement": "IC50", "setting": "[6]", "value": 400, "unit": "nM"}, {"measurement": "IC50", "setting": "LoVo", "value": 300, "unit": "nM"}]}, {"smiles": "C[C@]12CC[C@H]3[C@@H](CC[C@H]4C[C@H]5O[C@@H]6O[C@H](CO)C[C@@H](O)[C@]6(O)O[C@@H]5C[C@@]43C=O)[C@@]1(O)CC[C@@H]2C1=CC(=O)OC1", "values": [{"measurement": "IC50", "setting": "A549 [2]", "value": 80, "unit": "nM"}, {"measurement": "IC50", "setting": "MCF7", "value": 500, "unit": "nM"}, {"measurement": "IC50", "setting": "PC-3", "value": 300, "unit": "nM"}, {"measurement": "IC50", "setting": "[5]", "value": 500, "unit": "nM"}, {"measurement": "IC50", "setting": "BXPC-3", "value": 600, "unit": "nM"}, {"measurement": "IC50", "setting": "[6]", "value": 400, "unit": "nM"}, {"measurement": "IC50", "setting": "LoVo", "value": 900, "unit": "nM"}]}, {"smiles": "C[C@@H]1C[C@@H](O[C@H]2O[C@H](CO)[C@@H](O)[C@H](O)[C@H]2O)[C@]2(O)O[C@@H]3C[C@@]4(C=O)[C@@H](CC[C@@H]5[C@@H]4CC[C@]4(C)[C@@H](C6=CC(=O)OC6)CC[C@]54O)C[C@H]3O[C@@H]2O1", "values": [{"measurement": "Activity", "setting": "U-373MG ATCC [8]", "value": "Active"}, {"measurement": "Activity", "setting": "A549 [12]", "value": "Active"}, {"measurement": "IC50", "setting": "A549 [2]", "value": 200, "unit": "nM"}, {"measurement": "IC50", "setting": "MCF7", "value": 300, "unit": "nM"}, {"measurement": "Activity", "setting": "A549 [13]", "value": "Active"}, {"measurement": "IC50", "setting": "PC-3", "value": 200, "unit": "nM"}, {"measurement": "IC50", "setting": "[5]", "value": 500, "unit": "nM"}, {"measurement": "IC50", "setting": "BXPC-3", "value": 500, "unit": "nM"}, {"measurement": "Activity", "setting": "U-373MG ATCC [10]", "value": "Active"}, {"measurement": "IC50", "setting": "[6]", "value": 400, "unit": "nM"}, {"measurement": "IC50", "setting": "LoVo", "value": 400, "unit": "nM"}]}]}
